Consider seven molecules from patent US20020115117A1, “ERbeta-mediated gene expression” (priority 2000, published 2002).

Where no end group is shown, it is not given here.

For test [1], the system named is DU145 cells. Put plainly: Cell growth of DU145 cells, trypan blue exclusion count. The test is classed as cell-based, human. The settings on record: for reduction in the cell numbers: 1 μM, 4 days, vs vehicle (absolute ethanol) control; for effect on cell growth: 4-day exposure, vs vehicle control. As for the experimental part: FIGS. 2A-2D are graphs summarizing data on effects of antiestrogens and estrogens on cell growth of DU145 cells. Cells (5×10^3 cells per well) were plated in triplicate wells onto a 24-well plate. After 24 hours for cell attachment, cells were treated for 4 days with antiestrogens [(A) ICI and (B) 4OH-TAM] or estrogens [(C) 17β-estradiol and (D) DES] at various concentrations as indicated. Cells treated with vehicle (absolute ethanol) were used as control. The number of viable cells at the end of 4 days of treatment was determined by the trypan blue exclusion method. Three individual experiments were performed. (Columns, means; bars, S.D.; n=9; *, p<0.001 compared to control (shaded column).
(§1) Cells were seeded at a density of 5×10^3 per ml into 24-well plates (Falcon, Becton Dickinson Labware, Lincoln Park, N.J.) in a final volume of 1 ml culture medium with 5% charcoal-stripped FBS. Twenty-four hours following seeding, triplicate wells of cells were treated in with 1 μM, 10 μM and 100 μM of estradiol-17β (E2), diethylstilbestrol (DES), 4′-hydroxytamoxifen (4OH-TAM) or ICI 182,780 (ICI). E2, DES, and 4OH-TAM were purchased from Sigma Co. (St. Louis, Mo.) and ICI was a gift from Zeneca Pharmaceuticals (Macclesfield, United Kingdom). Estrogens and antiestrogens were dissolved in absolute ethanol (Sigma Co., St. Louis, Mo.) and added to the media daily. Cell cultures not treated with estrogenic compounds received absolute ethanol as a vehicle control. Total additive ethanol concentrations never exceeded 0.2% throughout the culture period. The cells were re-fed with freshly prepared medium every other day. At the end of a 4-day treatment period, cells in each well were trypsinized and cell count determined by direct counting using the Trypan blue exclusion method. All treatment experiments were repeated at least three times to generate statistically relevant data.

The subject of another test is PC-3 cells. Put plainly: Cell growth of PC-3 cells, trypan blue exclusion count. The test is classed as cell-based, human. As for the experimental part: FIGS. 3A-3D are graphs summarizing data on effects of antiestrogens and estrogens on cell growth of PC-3 cells. Cell growth assay was described in […]. (A) ICI. (B) 4OH-TAM. (C) 17β-estradiol. (D) DES. Columns, means; bars, S.D.; n=9; * ,p<0.001; #, p<0.01; +, p<0.05; compared to control (shaded column).
as §1

In test [2] the test system is DU145 cells. Kind of test: ICI-induced DU145 cell growth inhibition with ERβ antisense, sense or mismatch ODN. Type of test: cell-based, human. The settings on record: ICI 1 μM, 4 days, no ODN. As for the experimental part: FIG. 4 is a graph summarizing data on reduction of ICI-induced inhibition of DU145 cell growth by ERβ antisense oligonucleotide (ODN). Cells were treated with ICI at 10^−6 M for 4 days in the presence of 2.5 μM antisense, sense or mismatch ODNs. Columns, means; bars, S.D.; n=16; *,p<0.001 compared to control without ODN treatment.
DU145 cells (5×10^3 cells per well) were plated in 24 well-plates (Falcon, Becton Dickinson Labware, Lincoln Park, N.J.). After allowing 24 hours for cell attachment, cell cultures were treated in triplicate with 1 μM ICI in the presence of 2.5 μM ERβ antisense, sense or mismatch ODNs for 4 days. The ERβ antisense ODN, an 18-mer, was designed to recognize the first translation start site on the ERβ mRNA and its immediate 5′flanking region (Table 2, below). The nucleotide sequence of sense ODN is complementary to those of ERβ antisense ODN (Table 2). Based on the sequence of ERβ antisense ODN, 5 nucleotides were scrambled to generate a mismatch ODN that retains the same GC ratio of the ERβ antisense ODN (Table 2). Both the sense and the mismatch ODNs served as controls for the antisense ODN. In all three ODNs, the first and the last 3 nucleotides were phosphorothioate-modified to increase their stability in cellulo. Number of viable cells in each well was determined by direct counting using the Trypan blue exclusion method after a 4-day treatment period. […]

The subject of test [3] is DU145 cells. Kind of test: cDNA expression array of DU145 cells treated with ICI 182,780. Type of test: cell-based, human. The following applies: DU145, 12 hours. On the procedure:
cDNA array technology was used to identify genes whose expression is modulated by ICI 182,780 in DU145 cells. The DU-145 cells were treated for 12 hours with ICI 182,780, and total RNA was then isolated from treated cells and untreated controls. Following poly-(A)-RNA selection of these two population of total RNA, and DNase I digestion to remove contaminating DNA, the poly (A)-RNA pools were reversed-transcribed in the presence of P32 to produce radiolabeled cDNA probes. These radiolabeled cDNA probes were applied to an Atlas™ cDNA Expression Array (600 gene array, Clontech Laboratories, Inc, Palo Alto, Calif.) using the vendor's recommended protocol.

In the next test the test system is DU145. Put plainly: Cell growth inhibition by Raloxifene and Resveratrol, DU145. Type of test: cell-based, human. The source says: (§2) Raloxifene® and Resveratrol® may also be active tumor suppressing agents utilizing the ERβ pathways. […] Treatment protocols and dosages used were similar to those described above.
A further test deals with PC-3 M cells. Put plainly: Cell growth inhibition by Raloxifene and Resveratrol, PC-3 M. The test is classed as cell-based, human.
Description: as §2

The subject of a further test is recombinant ERβ protein. Kind of test: Competitive inhibition ELISA of GC-17 antibody. Type of test: binding, human. The settings on record: peptide pre-incubated with GC-17 (1:6000); ERβC 4 mg-4 μg/ml, ERβN 4 mg/ml. As for the experimental part:
FIG. 5 is a graphic representation of the results of a competitive ELISA assay and illustrates the concentration-dependent competition of the immunizing peptide (ERβC) with a GC-17 antibody. […] The GC-17 antibodies, bound to recombinant ER-β protein on ELISA plates, were recognized by alkaline phosphatase conjugated anti-rabbit IgG antibodies. The whole complexes were visualized by incubation with p-nitrophenyl phosphate. The optical density at 405 nm was measured. The entire assay was done 4 times. The columns represent the standard deviation. w/o=GC-17 preincubated without peptide antigen.
The wells of an ELISA plate, PRO-BIND™ (Becton-Dickenson Labware, Franklin, N.J.) were coated with a recombinant protein composed of the entire ERβ sequence (PanVera, Madison, Wis.) at a concentration of 5 μg/ml. The GC17 antibody (1:6000) was then pre-incubated with the immunizing peptide at concentrations ranging from 4 mg-4 μg/ml at room temperature for 30 minutes. In addition, 4 mg of a control peptide encompassing sequences in the N-terminal region of ER-β (Research Genetics) was preincubated with the GC 17 antibody (1:6000) at room temperature for 1 hour. […] Results were quantified by optical density using the Microplate reader 550 (Bio-Rad, Richmond, Calif.). […]

The next test has as its system ERβ. Kind of test: Competitive immunohistochemistry with GC-17 antibody. The settings on record: sections of DU145 and LNCaP cells, 400 μg/ml or 40 μg/ml peptide. Type of test: cell-based, human. From the text: These cells were used to compliment and confirm that the GC-17 antibody reagent specifically detected ERβ but not ERα by immunohistochemical staining. Using the GC-17 antibody and the anti-ERα antibody (NCL-ER-6F11, Novacastra, Newcastle, UK) at the same dilutions as for tissue sections (see below), we carried out immunohistochemical studies on 10% formalin-fixed cytospins of DU145 and LNCaP cells that had been routinely processed, embedded in paraffin, sectioned at 5 μm and mounted on SuperFrost Plus™ slides (VWF Scientific, West Chester, Pa.).
Peptide competition studies were performed at the immunohistochemical level that approximated the conditions used in the ELISA assays described above. GC-17 antibody, at a dilution of 1:6000, was incubated with the immunizing ERβ peptide at concentrations of 400 μg and 40 μg at room temperature for 1 hour. In addition, competitive studies were conducted using ERα recombinant peptide (400 and 40 μg, Affinity Bioreagents Inc., Golden, Colo.) on DU145 cells. Incubation conditions and time were identical to those used for the ERβ peptide competition studies. Deparaffinized sections of DU145 and LNCaP cells and human prostate tissue were then incubated with these mixtures at room temperature for 1 hour. […]

Take `CC/C(=C(\c1ccccc1)c1ccc(OCCN(C)C)cc1)c1ccc(O)cc1` [4OH-TAM, 4′-hydroxytamoxifen]: the “reduction in the cell numbers” value in the test with DU145 cells [1] was “around 25%”.
For the molecule `CC/C(=C(/CC)c1ccc(O)cc1)c1ccc(O)cc1` [DES, diethylstilbestrol], the figures for the “effect on cell growth” value in the test with DU145 cells [1] and in the test with PC-3 cells (various concentrations) were “did not affect cell growth” and “did not elicit statistically significant cell growth inhibition”, respectively.
As for `C[C@]12CC[C@@H]3c4ccc(O)cc4CC[C@H]3[C@@H]1CC[C@@H]2O` [E2, estradiol-17β], the “effect on cell growth” value with DU145 cells [1] was “did not affect cell growth”; in the test on PC-3 cells (1 μM, p<0.05) it was “induced inhibition of cell growth”; with PC-3 cells (10 μM, p<0.01), “induced inhibition of cell growth”.
For `C[C@]12CC[C@@H]3c4ccc(O)cc4C[C@@H](CCCCCCCCC[S+]([O-])CCCC(F)(F)C(F)(F)F)[C@H]3[C@@H]1CC[C@@H]2O` (stereo partly drawn) [ICI 182,780], in the test on DU145 cells [1], the “reduction in the cell numbers” value is 40%. For the same molecule, in the test with DU145 cells [1], the “effect on cell growth” value is “dose-dependent inhibition of cell numbers”. The “reduction in cell number” value with DU145 cells [2] was 40%. Also, the “Fold difference relative to control” value with DU145 cells [3] (gene: 5-hydroxytryptamine A1 receptor (E4h)) is on record as “+6.6”; in the test with DU145 cells [3] (gene: BCL-2 related A1 protein (BFL-1)(C4H)) it was “+9.6”; in the test on DU145 cells [3] (gene: Embryonic growth/differentiation factor (GDF-1)) it was “+4.5”; with DU145 cells [3] (gene: IFN-α/β receptor) it was “+2.7”; in the test on DU145 cells [3] (gene: Interleukin-12 alpha chain (IL-12)(F6K)) it was “+10.6”; in the test with DU145 cells [3] (gene: RYK receptor-like tyrosine kinase (E2c)) it was “+3.6”. In the test with DU145 cells [3] (gene: TL1309), the “Fold difference relative to control” value is recorded as “+2.7”.
For `O=C(c1ccc(OCCN2CCCCC2)cc1)c1c(-c2ccc(O)cc2)sc2cc(O)ccc12` [Raloxifene], the efficacy compared result in the test on DU145 is “markedly better than that of Resveratrol and ICI”; with PC-3 M cells, “markedly better than that of Resveratrol and ICI”. The “inhibition of cell growth” value in the test on DU145 and with PC-3 M cells was “marked inhibition of cell growth” throughout.
As for `Oc1ccc(C=Cc2cc(O)cc(O)c2)cc1` [Resveratrol], the “inhibition of cell growth” value in the test with DU145 and in the test with PC-3 M cells was “marked inhibition of cell growth” throughout.
Regarding “ERβC: immunizing peptide, C-terminus of ERβ (amino acids 449-465), 4-branch Multiple Antigenic Peptide (QQQSMRLANLLMLLSHV; also: 4-branch Multiple Antigenic Peptide)”, the “suppression of GC-17 binding to the recombinant protein” value in the test on recombinant ERβ protein is “successfully suppressed binding”. Also, the “effect on nuclear staining by GC-17” value in the test on ERβ is “totally abolished nuclear staining”.
